This is an account of results in patent US8674115B2, “CRTH2 modulators” (Ironwood Pharmaceuticals, Inc., priority 2009, dated 2014).

The target in experiment [1] is T1, CRTH2 (Homo sapiens, UniProt Q9Y5Y4).
T1 sequence (Q9Y5Y4 1-395): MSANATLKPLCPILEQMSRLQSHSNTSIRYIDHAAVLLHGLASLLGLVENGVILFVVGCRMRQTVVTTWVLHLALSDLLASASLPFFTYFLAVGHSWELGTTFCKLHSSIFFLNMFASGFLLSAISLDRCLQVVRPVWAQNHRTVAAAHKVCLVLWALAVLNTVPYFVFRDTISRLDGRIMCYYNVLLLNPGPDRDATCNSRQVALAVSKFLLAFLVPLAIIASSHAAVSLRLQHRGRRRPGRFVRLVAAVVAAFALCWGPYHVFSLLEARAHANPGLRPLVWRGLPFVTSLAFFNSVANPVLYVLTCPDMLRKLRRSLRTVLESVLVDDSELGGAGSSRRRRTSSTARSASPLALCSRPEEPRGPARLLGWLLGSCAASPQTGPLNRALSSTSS
As to the kind of experiment: DPBS CD11b antagonist assay (CD11b expression in eosinophils). It counts as cell-based. As to conditions: challenged with 10 nM 15R-Methyl-PGD2, read-out: CD11b Antag IC50(nM) [HuEos-DPBS-vs10nM15R]. The procedure: DPBS CD11b Antagonist Assay.
The potential CRTH2 antagonist activity of certain compounds was tested using a CD11b expression assay using essentially the method described by Monneret et al. (J Pharmacol Exp Ther 304:349-55, 2003). Briefly, polymorphonuclear cells (0.5 ml; 10^6/ml cells) in PBS containing 0.9 mM CaCl2 and 0.5 mM MgCl2) were preincubated with various concentrations of test compounds at room temperature for 10 minutes before they were challenged with the agonist 15R-Methyl-PGD2 (10 nM). The incubations were terminated by the addition of ice-cold FACSFlow (BD Biosciences; Cat# 342003) and centrifugation (400 g for 5 minutes at 4° C.). The cells were then incubated for 30 minutes at 4° C. with a mixture of PE-labeled mouse anti-human VLA-4 (5 μl; BD Biosciences) and FITC-labeled mouse anti-human CD11b (10 μl; Beckman Coulter). The cells were then incubated with Optilyse C (0.25 ml; Beckman Coulter) for 15 minutes, centrifuged, and then fixed in PBS (0.4 ml; calcium and magnesium free) containing 1% formaldehyde. The distribution of fluorescence intensities among 60,000 cells was measured by flow cytometry. Eosinophils were gated out on the basis of their granularity (high side scatter) and labeling with VLA-4 (PE fluorescence). CD11b was then measured in the eosinophil region on the basis of fluorescence due to FITC. All data were corrected for the value obtained for the corresponding isotope control antibody.

Experiment [2] deals with T1, CRTH2. As to the kind of experiment: Human whole blood CD11b antagonist assay (CD11b expression in eosinophils). It counts as cell-based. As to conditions: challenged with 10 nM 15R-Methyl-PGD2, read-out: CD11b Antag IC50(nM) [HuEos-HuWB-vs10nM15R]. On the set-up: endogenous in cells; host or cells: eosinophils in human whole blood. The procedure:
Human Whole Blood CD11B Antagonist Assay (Modified from Nicholson, et al. Pulmonary Pharmacology and Therapeutics: 20 (2007); 52-59).
The potential CRTH2 antagonist activity of certain compounds was tested in human whole blood using an assay that tests the ability of the compounds to block the CD11b expression in eosinophils by 15-R-methyl-PGD2. A CRTH2 antagonist should block CD11b expression by subsequently added 15-Methyl-PGD2. Human whole blood (200 μL) was incubated at 37° C. for 10 minutes in the presence of various concentrations of test compounds before being challenged with the agonist 15R-Methyl-PGD2 (10 nM). Reactions were terminated by the addition of ice-cold PBS+0.5% BSA+2 mMEDTA (1 mL) and centrifugation (300×g for 5 minutes at 4° C.) Cells were then incubated at 4° C. for 10 min in the presence of human IgG. Cells were then incubated for 30-45 min with a mixture of PE-Cy5-labeled mouse anti-human CD16 (10 ul; BD Biosciences) and FITC-labeled mouse anti-human CD11b (10 μL; Beckman Coulter.) After rinsing (1 mL ice-cold PBS+0.5% BSA+2 mMEDTA), red blood cells were lysed by the addition of 1 mL ice-cold H2O to the cell pellet for 30 sec-1 min immediately followed by the addition of 3.5% NaCl (300 μL.) Cells were then rinsed (2×-1 ml ice cold PBS+0.5% BSA+2 mMEDTA) and fixed in PBS containing 1% formaldehyde. The distribution of fluorescence intensities was measured by flow cytometry. Eosinophils were gated out on the basis of their granularity (high side scatter) and absence of CD-16. CD11b was then measured on this eosinophil population on the basis of fluorescence due to FITC.

By IC50 is commonly meant the midpoint of a concentration-inhibition curve. In the case of `Cc1cc(C(=O)c2ccccc2S(=O)(=O)N2CCOCC2)c(C)n1CC(=O)O` [I-56, 2-(2,5-dimethyl-3-(2-(morpholinosulfonyl)benzoyl)-1H-pyrrol-1-yl)acetic acid], the IC50 on CRTH2 [1] is over 500 nM; on CRTH2 [2], 100 to 500 nM.

Take `Cc1c(Cc2ccccc2S(=O)(=O)c2ccccc2)cc(-c2ccccc2F)n1CC(=O)O` [I-18, 2-(5-(2-fluorophenyl)-2-methyl-3-(2-(phenylsulfonyl)benzyl)-1H-pyrrol-1-yl)acetic acid]: the IC50 on CRTH2 [2] was over 500 nM.

For the compound `Cc1c(Cc2ccccc2S(=O)(=O)N2CCCC2)c(-c2ccccc2)c(C)n1CC(=O)O` [I-57, 2-(2,5-dimethyl-3-phenyl-4-(2-(pyrrolidin-1-ylsulfonyl)benzyl)-1H-pyrrol-1-yl)acetic acid], the 50% inhibitory concentration (IC50) at CRTH2 [1] is under 5 nM; at CRTH2 [2], 5 to 100 nM.

Regarding `Cc1c(Cc2ccccc2S(=O)(=O)N2CCCC2)c(C#N)c(C2CCCCC2)n1CC(=O)O` [I-14, 2-(3-cyano-2-cyclohexyl-5-methyl-4-(2-(pyrrolidin-1-ylsulfonyl)benzyl)-1H-pyrrol-1-yl)acetic acid], the 50% inhibitory concentration (IC50) at CRTH2 [2] is 100 to 500 nM.

Turning to `Cc1c(Cc2ccccc2S(=O)(=O)c2ccccc2)cc(-c2ccncc2)n1CC(=O)O` [I-1, 2-(2-methyl-3-(2-(phenylsulfonyl)benzyl)-5-(pyridin-4-yl)-1H-pyrrol-1-yl)acetic acid], the IC50 at CRTH2 [2] is under 5 nM.

As to `Cc1c(Cc2ccccc2S(=O)(=O)c2ccccc2)cc(-c2cccnc2)n1CC(=O)O` [I-2, 2-(2-methyl-3-(2-(phenylsulfonyl)benzyl)-5-(pyridin-3-yl)-1H-pyrrol-1-yl)acetic acid], the half-inhibitory concentration (IC50) on CRTH2 [2] was in the range of 5 to 100 nM.

On to `Cc1c(Cc2ccccc2S(=O)(=O)c2ccccc2)c(-c2ccccc2)c(-c2ccccc2)n1CC(=O)O` [I-12, 2-(2-methyl-4,5-diphenyl-3-(2-(phenylsulfonyl)benzyl)-1H-pyrrol-1-yl)acetic acid], for which, on CRTH2 [2], the 50% inhibitory concentration (IC50) is 5 to 100 nM.

In the case of `Cc1c(C#N)c(CC(=O)O)c(C)n1Cc1ccccc1S(=O)(=O)N1CCCC1` [I-73, 2-(4-cyano-2,5-dimethyl-1-(2-(pyrrolidin-1-ylsulfonyl)benzyl)-1H-pyrrol-3-yl)acetic acid], the IC50 on CRTH2 [2] is over 500 nM.

Turning to `Cc1nn(CC(=O)O)c(C)c1Cc1ccccc1S(=O)(=O)N1CCCC1` [I-72, 2-(3,5-dimethyl-4-(2-(pyrrolidin-1-ylsulfonyl)benzyl)-1H-pyrazol-1-yl)acetic acid], the half-maximal inhibitory concentration (IC50) at CRTH2 [1] is 100 to 500 nM; on CRTH2 [2], over 500 nM.

Consider `Cc1c(Cc2ccccc2S(=O)(=O)N2CCCC2)c(C#N)c(-c2ccccc2)n1CC(=O)O` [I-11, 2-(3-cyano-5-methyl-2-phenyl-4-(2-(pyrrolidin-1-ylsulfonyl)benzyl)-1H-pyrrol-1-yl)acetic acid], for which, at CRTH2 [2], the IC50 was 5 to 100 nM.

In the case of `Cc1c(Cc2ccccc2S(=O)(=O)c2ccccc2)cc(-c2cccc(F)c2)n1CC(=O)O` [I-8, 2-(5-(3-fluorophenyl)-2-methyl-3-(2-(phenylsulfonyl)benzyl)-1H-pyrrol-1-yl)acetic acid], the IC50 at CRTH2 [2] is 5 to 100 nM.

`Cc1c(Cc2ccccc2S(=O)(=O)c2ccccc2)c(C#N)c(-c2ccccc2)n1CC(=O)O` [I-4, 2-(3-cyano-5-methyl-2-phenyl-4-(2-(phenylsulfonyl)benzyl)-1H-pyrrol-1-yl)acetic acid]: the values for the IC50 on CRTH2 [1] and at CRTH2 [2] were under 5 nM and 5 to 100 nM, respectively.

As to `Cc1c(C#N)c(Cc2ccccc2S(=O)(=O)N2CCCC2)c(C)n1CC(=O)O` [I-32, 2-(3-cyano-2,5-dimethyl-4-(2-(pyrrolidin-1-ylsulfonyl)benzyl)-1H-pyrrol-1-yl)acetic acid], the half-maximal inhibitory concentration (IC50) at CRTH2 [1] was under 5 nM; at CRTH2 [2], 5 to 100 nM.

Consider `Cc1c(Cc2ccccc2S(=O)(=O)c2ccccc2)cc(-c2ccc(C(F)(F)F)cc2)n1CC(=O)O` [I-25, 2-(2-methyl-3-(2-(phenylsulfonyl)benzyl)-5-(4-(trifluoromethyl)phenyl)-1H-pyrrol-1-yl)acetic acid], for which the IC50 on CRTH2 [1] is 5 to 100 nM; at CRTH2 [2], over 500 nM.

For the compound `Cc1c(Cc2ccccc2S(=O)(=O)c2ccccc2)cc(-c2ccccc2)n1CC(=O)O` [I-6, 2-(2-methyl-5-phenyl-3-(2-(phenylsulfonyl)benzyl)-1H-pyrrol-1-yl)acetic acid], the IC50 is under 5 nM at CRTH2 [1] and 100 to 500 nM at CRTH2 [2].

In the case of `Cc1cc(Cc2ccccc2S(=O)(=O)N2CCCC2)c(C)n1CC(=O)O` [I-9, 2-(2,5-dimethyl-3-(2-(pyrrolidin-1-ylsulfonyl)benzyl)-1H-pyrrol-1-yl)acetic acid], the half-inhibitory concentration (IC50) on CRTH2 [1] and at CRTH2 [2] was 5 to 100 nM in each case.

For `Cc1c(Cc2ccccc2S(=O)(=O)c2ccccc2)cc(-c2ccc(F)cc2)n1CC(=O)O` [I-15, 2-(5-(4-fluorophenyl)-2-methyl-3-(2-(phenylsulfonyl)benzyl)-1H-pyrrol-1-yl)acetic acid], on CRTH2 [2], the IC50 lay within 100 to 500 nM.

With `CC(=O)c1c(Cc2ccccc2S(=O)(=O)N2CCCC2)c(C)n(CC(=O)O)c1C` [I-53, 2-(3-acetyl-2,5-dimethyl-4-(2-(pyrrolidin-1-ylsulfonyl)benzyl)-1H-pyrrol-1-yl)acetic acid], the half-inhibitory concentration (IC50) is under 5 nM on CRTH2 [1] and 5 to 100 nM at CRTH2 [2].

Turning to `Cc1cc(Sc2ccccc2S(=O)(=O)N2CCOCC2)c(C)n1CC(=O)O` [I-29, 2-(2,5-dimethyl-3-(2-(morpholinosulfonyl)phenylthio)-1H-pyrrol-1-yl)acetic acid], the IC50 is under 5 nM on CRTH2 [1] and 5 to 100 nM at CRTH2 [2].

Take `Cc1c(C#N)c(Cc2ccccc2S(=O)(=O)N2CCOCC2)c(C)n1CC(=O)O` [I-46, 2-(3-cyano-2,5-dimethyl-4-(2-(morpholinosulfonyl)benzyl)-1H-pyrrol-1-yl)acetic acid]: the IC50 on CRTH2 [1] and on CRTH2 [2] was 5 to 100 nM throughout.

On to `Cc1c(Cc2ccccc2S(=O)(=O)N2CCCC2)cc(-c2ccccc2)n1CC(=O)O` [I-16], for which, at CRTH2 [2], the half-inhibitory concentration (IC50) was in the range of 100 to 500 nM.

Turning to `Cc1c(Cc2ccccc2S(=O)(=O)N2CCOCC2)cc(-c2ccccc2)n1CC(=O)O` [I-13, 2-(2-methyl-3-(2-(morpholinosulfonyl)benzyl)-5-phenyl-1H-pyrrol-1-yl)acetic acid], the IC50 at CRTH2 [2] is 5 to 100 nM.

Turning to `Cc1c(Cc2ccccc2S(=O)(=O)c2ccccc2)cc(-c2ccccn2)n1CC(=O)O` [I-17, 2-(2-methyl-3-(2-(phenylsulfonyl)benzyl)-5-(pyridin-2-yl)-1H-pyrrol-1-yl)acetic acid], the half-inhibitory concentration (IC50) on CRTH2 [2] fell in the range of 100 to 500 nM.

For `Cc1c(Cc2ccc(S(=O)(=O)N3CCCC3)cc2)c(C)n(CC(=O)O)c1CCO` [I-20, 2-(2-(2-hydroxyethyl)-3,5-dimethyl-4-(4-(pyrrolidin-1-ylsulfonyl)benzyl)-1H-pyrrol-1-yl)acetic acid], the IC50 on CRTH2 [1] was over 500 nM.

Consider `Cc1c(Cc2ccccc2S(=O)(=O)c2ccccc2)cc(-c2ccccc2C(F)(F)F)n1CC(=O)O` [I-27, 2-(2-methyl-3-(2-(phenylsulfonyl)benzyl)-5-(2-(trifluoromethyl)phenyl)-1H-pyrrol-1-yl)acetic acid], for which the half-inhibitory concentration (IC50) on CRTH2 [2] is over 500 nM.

On to `Cc1c(Cc2ccccc2S(=O)(=O)N2CCOCC2)c(C#N)c(-c2ccccc2)n1CC(=O)O` [I-3, 2-(3-cyano-5-methyl-4-(2-(morpholinosulfonyl)benzyl)-2-phenyl-1H-pyrrol-1-yl)acetic acid], for which, at CRTH2 [2], the IC50 is 5 to 100 nM.
